The supplement of paper PMC7840683
± gives the standard deviation of the averaged measurements.

Tested on: HepaRG
Experiment: LDH release cytotoxicity, % of total lysis control; higher = more cytotoxic
Settings: 48 h
Summary of the method: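 Eight-point half-log series of test chemicals, the highest at 100 µM, were given in duplicate for 48 h to single-lot HepaRG cells on collagen I-coated 96-well plates in serum-free induction medium with 0.5% DMSO. A Tecan Safire read resorufin fluorescence from CytoTox-ONE as a measure of LDH in 50 µL spent medium, with 0.1% Triton X in total lysis wells. Percent cytotoxicity was normalized to on-plate vehicle and total lysis controls and averaged over the duplicates.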

COc1cc(-c2ccc(N)c(OC)c2)ccc1N [3,3'-Dimethoxybenzidine]
LDH release cytotoxicity (0.03162 µM): -2.67 ± 0.52% | LDH release cytotoxicity (0.1 µM): -2.03 ± 1.2% | LDH release cytotoxicity (0.3162278 µM): -2.61 ± 0.54% | LDH release cytotoxicity (1 µM): -2.72 ± 1.3% | LDH release cytotoxicity (3.16228 µM): -1.97 ± 0.08% | LDH release cytotoxicity (10 µM): -2.38 ± 0.65% | LDH release cytotoxicity (31.6228 µM): -2.12 ± 0.23% | LDH release cytotoxicity (100 µM): -0.532 ± 0.63%

Cc1cc(-c2ccc(N)c(C)c2)ccc1N [3,3'-Dimethylbenzidine]
LDH release cytotoxicity (0.03162 µM): -0.774 ± 1.1% | LDH release cytotoxicity (0.1 µM): -1.43 ± 0.33% | LDH release cytotoxicity (0.3162278 µM): -1.35 ± 0.3% | LDH release cytotoxicity (1 µM): -1.27 ± 0.083% | LDH release cytotoxicity (3.16228 µM): -0.397 ± 0.66% | LDH release cytotoxicity (10 µM): -0.218 ± 0.26% | LDH release cytotoxicity (31.6228 µM): 2.22 ± 0.32% | LDH release cytotoxicity (100 µM): 5.88 ± 1.2%

Cc1ccc(N)c(N)c1 [3,4-Diaminotoluene]
LDH release cytotoxicity (0.0317809 µM): -0.96 ± 0.44% | LDH release cytotoxicity (0.1005 µM): -0.403 ± 1.1% | LDH release cytotoxicity (0.317809 µM): -1.27 ± 0.55% | LDH release cytotoxicity (1.005 µM): -0.97 ± 1% | LDH release cytotoxicity (3.17809 µM): -0.641 ± 0.42% | LDH release cytotoxicity (10.05 µM): -0.448 ± 0.68% | LDH release cytotoxicity (31.7809 µM): -0.415 ± 1.9% | LDH release cytotoxicity (100.5 µM): 0.704 ± 1.1%

O=[N+]([O-])c1ccc(Cl)c(Cl)c1 [3,4-Dichloronitrobenzene]
LDH release cytotoxicity (0.03162 µM): -2.51 ± 0.31% | LDH release cytotoxicity (0.1 µM): -2.5 ± 0.12% | LDH release cytotoxicity (0.3162278 µM): -2.72 ± 0.62% | LDH release cytotoxicity (1 µM): -3.32 ± 0.099% | LDH release cytotoxicity (3.16228 µM): -2.26 ± 0.096% | LDH release cytotoxicity (10 µM): -2.3 ± 0.049% | LDH release cytotoxicity (31.6228 µM): -1.86 ± 0.037% | LDH release cytotoxicity (100 µM): -0.0607 ± 0.49%

NC(Cc1cc(I)c(Oc2ccc(O)c(I)c2)c(I)c1)C(=O)O (stereo not given) [3,5,3'-Triiodothyronine]
LDH release cytotoxicity (0.031623 µM): -1.22 ± 1.4% | LDH release cytotoxicity (0.1 µM): -3.18 ± 1.4% | LDH release cytotoxicity (0.316228 µM): -4.73 ± 0.3% | LDH release cytotoxicity (1 µM): -4.06 ± 0.7% | LDH release cytotoxicity (3.16228 µM): -3.84 ± 0.24% | LDH release cytotoxicity (10 µM): -3.581 ± 0.016% | LDH release cytotoxicity (31.6228 µM): -2.69 ± 1.4% | LDH release cytotoxicity (100 µM): 0.489 ± 0.55%

CC(C)=CCCC(C)=CC=O [3,7-Dimethyl-2,6-octadienal]
LDH release cytotoxicity (0.03162 µM): -1.99 ± 0.53% | LDH release cytotoxicity (0.1 µM): -2.58 ± 0.96% | LDH release cytotoxicity (0.3162278 µM): -1.66 ± 0.9% | LDH release cytotoxicity (1 µM): -2.25 ± 1.7% | LDH release cytotoxicity (3.16228 µM): -0.875 ± 0.71% | LDH release cytotoxicity (10 µM): -0.825 ± 1.8% | LDH release cytotoxicity (31.6228 µM): -0.501 ± 0.3% | LDH release cytotoxicity (100 µM): 0.215 ± 0.38%

OCCCBr [3-Bromo-1-propanol]
LDH release cytotoxicity (0.03162 µM): 0.25 ± 1.2% | LDH release cytotoxicity (0.1 µM): -0.845 ± 0.1% | LDH release cytotoxicity (0.3162278 µM): -1.144 ± 0.0048% | LDH release cytotoxicity (1 µM): -0.314 ± 0.33% | LDH release cytotoxicity (3.16228 µM): -0.692 ± 0.86% | LDH release cytotoxicity (10 µM): -0.0559 ± 0.79% | LDH release cytotoxicity (31.6228 µM): -0.26 ± 0.065% | LDH release cytotoxicity (100 µM): 9.22 ± 1.3%

Oc1ccc2c(c1)-c1ccccc1C2 [3-Hydroxyfluorene]
LDH release cytotoxicity (0.03162 µM): -1.48 ± 0.74% | LDH release cytotoxicity (0.1 µM): -1.06 ± 0.48% | LDH release cytotoxicity (0.3162278 µM): -0.414 ± 0.17% | LDH release cytotoxicity (1 µM): -1.04 ± 0.052% | LDH release cytotoxicity (3.16228 µM): -0.932 ± 0.52% | LDH release cytotoxicity (10 µM): -0.0118 ± 0.39% | LDH release cytotoxicity (31.6228 µM): 0.438 ± 0.78% | LDH release cytotoxicity (100 µM): 3.69 ± 1.1%

CCCCNC(=O)OCC#CI [3-Iodo-2-propynyl-N-butylcarbamate]
LDH release cytotoxicity (0.0301998 µM): 3.83 ± 0.91% | LDH release cytotoxicity (0.0955 µM): 4.17 ± 0.21% | LDH release cytotoxicity (0.301997 µM): 4.24 ± 0.97% | LDH release cytotoxicity (0.955 µM): 4.49 ± 0.11% | LDH release cytotoxicity (3.01998 µM): 4.53 ± 0.06% | LDH release cytotoxicity (9.55 µM): 4.22 ± 2% | LDH release cytotoxicity (30.199752 µM): 19.6 ± 1.1% | LDH release cytotoxicity (95.5 µM): 82.9 ± 2.8%

Cc1cccc(N)c1 [3-Methylaniline]
LDH release cytotoxicity (0.03162 µM): -1.1 ± 0.99% | LDH release cytotoxicity (0.1 µM): -0.218 ± 0.41% | LDH release cytotoxicity (0.3162278 µM): -1 ± 0.32% | LDH release cytotoxicity (1 µM): -0.834 ± 0.35% | LDH release cytotoxicity (3.16228 µM): -0.813 ± 0.085% | LDH release cytotoxicity (10 µM): 0.339 ± 0.18% | LDH release cytotoxicity (31.6228 µM): 0.0207 ± 0.7% | LDH release cytotoxicity (100 µM): 1.94 ± 0.54%

CC(=O)OCCC(C)C [3-Methylbutyl acetate]
LDH release cytotoxicity (0.03162 µM): -1.61 ± 1.2% | LDH release cytotoxicity (0.1 µM): -1.62 ± 0.34% | LDH release cytotoxicity (0.3162278 µM): -0.432 ± 0.2% | LDH release cytotoxicity (1 µM): -1.89 ± 0.41% | LDH release cytotoxicity (3.16228 µM): -0.737 ± 0.29% | LDH release cytotoxicity (10 µM): 0.266 ± 1.3% | LDH release cytotoxicity (31.6228 µM): 1.88 ± 0.52% | LDH release cytotoxicity (100 µM): 2.4 ± 0.52%

Cc1cccc([N+](=O)[O-])c1 [3-Nitrotoluene]
LDH release cytotoxicity (0.0324133 µM): -0.599 ± 0.21% | LDH release cytotoxicity (0.1025 µM): -1.561 ± 0.014% | LDH release cytotoxicity (0.324134 µM): -1.45 ± 0.26% | LDH release cytotoxicity (1.025 µM): -0.805 ± 0.87% | LDH release cytotoxicity (3.24133 µM): -1.27 ± 0.12% | LDH release cytotoxicity (10.25 µM): -0.551 ± 0.69% | LDH release cytotoxicity (32.4133 µM): -0.321 ± 0.16% | LDH release cytotoxicity (102.5 µM): 0.844 ± 1.1%

O=C(O)c1cccc(Oc2ccccc2)c1 [3-Phenoxybenzoic acid]
LDH release cytotoxicity (0.0253 µM): 2.02 ± 1.1% | LDH release cytotoxicity (0.08 µM): 1.68 ± 0.14% | LDH release cytotoxicity (0.252982 µM): 1.75 ± 0.9% | LDH release cytotoxicity (0.8 µM): 0.842 ± 0.14% | LDH release cytotoxicity (2.52982 µM): 0.659 ± 0.3% | LDH release cytotoxicity (8 µM): -0.233 ± 0.036% | LDH release cytotoxicity (25.2982 µM): -0.367 ± 0.52% | LDH release cytotoxicity (80 µM): -1.57 ± 0.08%

N#Cc1cccnc1 [3-Pyridinecarbonitrile]
LDH release cytotoxicity (0.03162 µM): -1.36 ± 2% | LDH release cytotoxicity (0.1 µM): -2.41 ± 0.16% | LDH release cytotoxicity (0.3162278 µM): -2.8 ± 0.062% | LDH release cytotoxicity (1 µM): -2.872 ± 0.0079% | LDH release cytotoxicity (3.16228 µM): -3.04 ± 0.12% | LDH release cytotoxicity (10 µM): -2.26 ± 0.059% | LDH release cytotoxicity (31.6228 µM): -2.04 ± 0.41% | LDH release cytotoxicity (100 µM): -1.31 ± 0.76%

CC(c1ccc(O)cc1)(c1ccc(O)cc1)c1ccc(O)cc1 [4,4',4''-Ethane-1,1,1-triyltriphenol]
LDH release cytotoxicity (0.03162 µM): -1.89 ± 0.76% | LDH release cytotoxicity (0.1 µM): -1.24 ± 0.1% | LDH release cytotoxicity (0.3162278 µM): -1.7 ± 0.43% | LDH release cytotoxicity (1 µM): -1.8 ± 0.66% | LDH release cytotoxicity (3.16228 µM): -0.727 ± 0.39% | LDH release cytotoxicity (10 µM): -1.47 ± 0.018% | LDH release cytotoxicity (31.6228 µM): -1.43 ± 0.12% | LDH release cytotoxicity (100 µM): -0.486 ± 0.26%

c1cc(-c2ccncc2)ccn1 [4,4'-Bipyridine]
LDH release cytotoxicity (0.03162 µM): -0.85 ± 0.14% | LDH release cytotoxicity (0.1 µM): -1.15 ± 0.96% | LDH release cytotoxicity (0.3162278 µM): -0.941 ± 0.12% | LDH release cytotoxicity (1 µM): -1.18 ± 0.065% | LDH release cytotoxicity (3.16228 µM): -1.05 ± 0.039% | LDH release cytotoxicity (10 µM): 4.58 ± 0.24% | LDH release cytotoxicity (31.6228 µM): 24 ± 0.4% | LDH release cytotoxicity (100 µM): 18 ± 1.7%

Cc1cc(Cc2ccc(N)c(C)c2)ccc1N [4,4'-Diamino-3,3'-dimethyldiphenylmethane]
LDH release cytotoxicity (0.03162 µM): -1.54 ± 0.07% | LDH release cytotoxicity (0.1 µM): -0.939 ± 0.25% | LDH release cytotoxicity (0.3162278 µM): -0.759 ± 0.17% | LDH release cytotoxicity (1 µM): -1.39 ± 0.074% | LDH release cytotoxicity (3.16228 µM): -0.662 ± 0.88% | LDH release cytotoxicity (10 µM): -0.124 ± 0.55% | LDH release cytotoxicity (31.6228 µM): -0.39 ± 0.76% | LDH release cytotoxicity (100 µM): -0.749 ± 1.9%

Nc1ccc(Cc2ccc(N)cc2)cc1 [4,4'-Diaminobiphenyl methane]
LDH release cytotoxicity (0.03162 µM): -0.659 ± 0.14% | LDH release cytotoxicity (0.1 µM): -2.27 ± 0.61% | LDH release cytotoxicity (0.3162278 µM): -2.24 ± 0.039% | LDH release cytotoxicity (1 µM): -2.78 ± 0.38% | LDH release cytotoxicity (3.16228 µM): -2.52 ± 0.39% | LDH release cytotoxicity (10 µM): -2.46 ± 0.15% | LDH release cytotoxicity (31.6228 µM): -1.8 ± 0.081% | LDH release cytotoxicity (100 µM): 0.228 ± 0.61%

CN(C)c1ccc(Cc2ccc(N(C)C)cc2)cc1 [4,4'-Methylenebis(N,N-dimethylaniline)]
LDH release cytotoxicity (0.03162 µM): -0.47 ± 1.9% | LDH release cytotoxicity (0.1 µM): -1.28 ± 0.91% | LDH release cytotoxicity (0.3162278 µM): -1.73 ± 1% | LDH release cytotoxicity (1 µM): -1.6 ± 0.25% | LDH release cytotoxicity (3.16228 µM): -1.29 ± 0.56% | LDH release cytotoxicity (10 µM): -1.04 ± 0.28% | LDH release cytotoxicity (31.6228 µM): -0.536 ± 0.19% | LDH release cytotoxicity (100 µM): 0.0839 ± 0.57%

Nc1ccc(Oc2ccc(N)cc2)cc1 [4,4'-Oxydianiline]
LDH release cytotoxicity (0.031623 µM): -1.51 ± 0.78% | LDH release cytotoxicity (0.1 µM): -3.05 ± 0.94% | LDH release cytotoxicity (0.316228 µM): -1.18 ± 1.3% | LDH release cytotoxicity (1 µM): -2.52 ± 0.66% | LDH release cytotoxicity (3.16228 µM): -1.772 ± 0.0034% | LDH release cytotoxicity (10 µM): -0.999 ± 2.1% | LDH release cytotoxicity (31.6228 µM): 17 ± 3.5% | LDH release cytotoxicity (100 µM): 62.8 ± 3.5%
